Measurements from PMC5329948, “Caspase vinyl sulfone small molecule inhibitors prevent axonal degeneration in human neurons and reverse cognitive impairment in Caspase-6-overexpressing mice” (Molecular Neurodegeneration, 2017).

Columns and labels:
Type in all cases: biochemical
[1] = target: T1, recombinant active site-titrated Casp6 (Homo sapiens, UniProt P55212); test: IC50 on in-house recombinant active site-titrated Casp6 (Ac-VEID-AFC fluorogenic assay); settings: 20 nM Casp6, 5 min preincubation at room temperature, 10 μM Ac-VEID-AFC; read-out: IC50 against recombinant active site-titrated Casp6
T1 construct: human Casp6 large subunit (amino acids 24-179, flanked by start (ATG) and stop (TAA) codons); small subunit (amino acids 194-293, preceded by a start codon); initiator Met (added start codon) (N); His; made in house; host or cells: E. coli BL21(DE3)pLysS
Procedure: Recombinant Casp6 Expression and purification: Casp6 was expressed from the pET23b(+)-Casp6-His plasmid in E. coli BL21(DE3)pLysS strain (Promega, Fitchburg, WI, USA) at 37 °C in 2xYT medium (16 g/l tryptone, 10 g/l yeast extract, 5 g/l NaCl) supplemented with 0.1 mg/ml ampicillin and 0.034 mg/ml chloramphenicol under vigorous shaking according to [46]. Casp6 expression was induced with 50 μM isopropyl β-D-1-thiogalactopyranoside (IPTG) when cell cultures reached OD595 nm of 0.6 and cells cultured at 22 °C for 16 h under vigorous shaking. […] The lysate was clarified by centrifugation (30,000 x g for 30 min at 4 °C) and loaded on Ni Sepharose Fast Flow 6 medium (GE Healthcare Life Sciences, Baie D’Urfe, QC, CA) pre-equilibrated with buffer A, washed with buffer B (50 mM Tris pH 8.5, 500 mM NaCl, 5% glycerol, 20 mM imidazole), and bound proteins eluted with a 50-300 mM linear imidazole gradient in buffer A. Fractions were assessed for recombinant Casp6 purity by SDS-PAGE and Coomassie blue staining. […] Protein concentration was measured using Quick Start Bradford 1x Dye Reagent (Bio-Rad Laboratories, Hercules, CA, USA). Active site titration assay: The concentration of Casp6 active sites was determined by active site titration assay using Z-VAD-fmk (N-benzyloxycarbonyl-Val-Ala-Asp-(O-methyl)-fluoromethylketone, MP Biomedicals, Santa Ana, CA, USA) inhibitor [46]. […]

recombinant Caspase-4 = target: T2, recombinant Caspase-4 (Homo sapiens, UniProt P49662); test: Caspase Inhibitor Drug Screening Kit (BioVision), LEVD-AFC substrate; settings: not active site titrated
T2 construct: purchased BioVision
Procedure: (§1) The half-maximal inhibitory concentrations (IC50) for NWL inhibitors (Patent publication # WO/2009/140765, WO/2010/133000, and WO/2012/140500) was determined by incubating 0 to 20 μM NWL-117 and NWL-154 with 20 nM of active site-titrated Casp6 in SB at room temperature for 5 minutes. Then, 10 μM Ac-VEID-AFC was added and fluorescence measured for 20 min at 37 °C as described above. New World Laboratories performed the IC50 determination for NWL inhibitors dissolved in dimethyl sulfoxide (DMSO) against recombinant Casp1-10 using the Caspase Inhibitor Drug Screening Kits (BioVision, San Francisco, CA) following the manufacturer’s instructions and the preferred substrates for the caspases (Caspase-1: WAD-AFC, Caspase-2: VDVAD-AFC, Caspase-3: DEVD-AFC, Caspase-4: LEVD-AFC, Caspase-5: WEHD-AFC, Casp6:VEID-AFC, Caspase-7: DEVD-AFC, Caspase-8: IETD-AFC, Caspase-9: LEHD-AFC, Caspase-10: AEVD-AFC). In transfected HCT116 cells, 0 to 100 μM NWL inhibitors were added in the culture media and left on the cells for 2 h. Cells were washed once with 1 mL ice-cold PBS, incubated on ice for 5 min with 200 μL cell lysis buffer (CLB) (50 mM HEPES, 0.1% CHAPS, 0.1 mM EDTA), and gently scraped off. Protein concentrations were determined by Bradford assay (BioRad, Mississauga, ON, CA) by measuring the absorbance at 595 nm using the BioTek Synergy H4 plate reader. […]

recombinant Caspase-8 = target: T3, recombinant Caspase-8 (Homo sapiens, UniProt Q14790); test: Caspase Inhibitor Drug Screening Kit (BioVision), IETD-AFC substrate; settings: not active site titrated
T3 construct: purchased BioVision
Procedure: as §1

recombinant Caspase-9 = target: T4, recombinant Caspase-9 (Homo sapiens, UniProt P55211); test: Caspase Inhibitor Drug Screening Kit (BioVision), LEHD-AFC substrate; settings: not active site titrated
T4 construct: purchased BioVision
Procedure: as §1

T1 sequence (P55212 24-179): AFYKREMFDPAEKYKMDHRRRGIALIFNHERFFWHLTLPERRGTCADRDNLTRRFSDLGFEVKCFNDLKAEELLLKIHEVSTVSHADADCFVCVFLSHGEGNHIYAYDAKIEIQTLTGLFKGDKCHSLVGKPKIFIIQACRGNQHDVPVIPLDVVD
T1 sequence (P55212 194-293): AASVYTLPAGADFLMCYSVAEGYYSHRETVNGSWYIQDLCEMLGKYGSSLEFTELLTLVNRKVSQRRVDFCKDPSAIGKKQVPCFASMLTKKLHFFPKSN
T2 sequence (P49662 81-377): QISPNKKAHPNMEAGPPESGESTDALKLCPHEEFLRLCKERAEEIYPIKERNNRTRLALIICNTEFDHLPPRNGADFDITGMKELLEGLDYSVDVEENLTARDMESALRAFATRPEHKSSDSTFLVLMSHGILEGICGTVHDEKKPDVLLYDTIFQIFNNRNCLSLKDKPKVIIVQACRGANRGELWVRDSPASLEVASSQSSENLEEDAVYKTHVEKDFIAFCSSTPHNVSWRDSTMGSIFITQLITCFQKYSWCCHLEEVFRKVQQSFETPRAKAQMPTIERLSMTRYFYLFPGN
T4 sequence (P55211 whole entry): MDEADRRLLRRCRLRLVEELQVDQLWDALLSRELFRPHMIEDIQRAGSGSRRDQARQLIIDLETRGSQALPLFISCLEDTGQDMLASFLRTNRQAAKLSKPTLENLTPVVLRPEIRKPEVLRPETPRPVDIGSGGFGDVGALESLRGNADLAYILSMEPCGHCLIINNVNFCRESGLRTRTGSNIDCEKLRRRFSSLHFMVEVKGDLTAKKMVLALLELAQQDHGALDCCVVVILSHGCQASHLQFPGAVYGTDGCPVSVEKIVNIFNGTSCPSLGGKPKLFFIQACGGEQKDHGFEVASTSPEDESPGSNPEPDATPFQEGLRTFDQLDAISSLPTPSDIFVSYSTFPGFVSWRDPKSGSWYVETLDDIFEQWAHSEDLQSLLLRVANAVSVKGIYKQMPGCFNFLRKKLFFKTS
T3 sequence (Q14790 217-479): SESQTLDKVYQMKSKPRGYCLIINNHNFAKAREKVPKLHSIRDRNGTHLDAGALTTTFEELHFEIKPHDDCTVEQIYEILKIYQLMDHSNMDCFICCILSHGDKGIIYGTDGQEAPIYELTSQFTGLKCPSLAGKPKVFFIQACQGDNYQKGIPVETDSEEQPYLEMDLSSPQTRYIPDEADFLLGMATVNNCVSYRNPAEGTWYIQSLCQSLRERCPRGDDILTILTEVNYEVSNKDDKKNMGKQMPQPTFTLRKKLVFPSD

Structure (SMILES)	IC50 [1] [nM]	IC50 (recombinant Caspase-4) [nM]	IC50 (recombinant Caspase-8) [nM]	IC50 (recombinant Caspase-9) [nM]
CCC(C)[C@H](NC(=O)[C@H](CCC(=O)O)NC(=O)[C@@H](NC(=O)OCc1ccccc1)C(C)C)C(=O)N[C@H](/C=C/S(C)(=O)=O)CC(=O)O (some centres unmarked) [NWL-117]	192	380	660	790
CCC(C)[C@H](NC(=O)[C@H](CCC(=O)O)NC(=O)[C@@H](NC(=O)OCc1ccccc1)C(C)C)C(=O)N[C@H](/C=C(\Cl)S(C)(=O)=O)CC(=O)O (some centres unmarked) [NWL-154]	100	1800	530	6400
